1 substance from patent US11896704B2, “Compounds useful for the treatment and/or care of the skin, hair, nails and/or mucous membranes” (LUBRIZOL ADVANCED MATERIALS, INC., priority 2017, dated 2024) can be followed below.

The subject of assay [1] is PER3 (period circadian clock 3). In words: Clock gene expression in synchronized HEKa, real time PCR: PER3. Type of assay: cell-based, Human. As to conditions: 0.5 mg/ml. The method, then: (§1) In Vitro Study of Clock Genes Expression in Synchronized Human Epidermal Keratinocytes from Adult (HEKa) Using Real Time PCR Arrays. HEKa cells (Life Technologies) are seeded at 3.0×10^5 cells/well in 12-well plates and incubated in culture medium, Keratinocyte growth medium supplemented with Mix C39016-CaCl2 solution (Promocell). For synchronization, cells were subjected to two alternative cycles of 12 hours each at 37° C. in 5% CO2 humidified air (day mode) and 33° C. in 5% CO2 humidified air (night mode). 12 hours after starting synchronization, cells are incubated with the synthetic peptide […] (PEP-1, H-[SEQ ID. NO. 2]-NH2) at 0.5 mg/ml in culture medium. Cells treated with medium alone are used as basal condition. At the end of synchronization, cell lysates are collected at two different times: 7:30 hour (early morning point) and 11:30 hour (midday point). […] After RNA elution, quantification and analysis of purity of RNA samples are performed with a nanodrop (Thermo). […] SYBR Green binds to double-stranded DNA molecules and emits fluorescence which is quantified, and the fluorescence intensity is proportional to the amount of the product in the PCR reaction. […] Fold change relative to the expression of the sample genes and reference genes is calculated using normalized expression (ΔΔ(Ct)) method using CFX Manager Software (BioRad).
On the technique in general: Real-time PCR tracks product formation cycle by cycle.

The test system of assay [2] is CRY2 (cryptochrome circadian clock 2). In words: Clock gene expression in synchronized HEKa, real time PCR: CRY2. Format: cell-based, Human. As to conditions: 0.5 mg/ml. The method, then:
as §1

For assay [3], the system named is mitochondrial complex II (succinate-coenzyme Q reductase). Put plainly: Mitochondrial complex II activity in human dermal fibroblasts, colorimetric assay. Format: cell-based. As to conditions: HDFa, 24 hours. The method, then: Measurement of Increase in Mitochondrial Complex II Activity Using an Assay Based on Colorimetric Detection.
Human Dermal Fibroblasts from adult (HDFa, Life Technologies) are seeded at a density of 750.000 cells/75 cm^2 flask (one flask per condition) in culture medium M106 with Low Serum Growth Supplement (Life Technologies). Cells are grown during 7 days at 37° C. in 5% CO2 humidified air. […]. Non treated cells incubated in culture medium alone are used as basal conditions. After 24 hours of treatment, cells are detached using trypsin and resuspended in 40 ul of Phosphate buffer saline (Sigma). Total protein concentration is measured with a Pierce BCA Protein Assay Kit (BCA Assay, Thermo Scientific) following manufacturer's protocol to adjust the final protein concentration between 2500-3000 ug/ml. Briefly, standards and samples are dispensed and Working Reagent is added to the samples. After 30 minutes of incubation at 37° C., absorbance is measured with a microplate reader (Clariostar®, BMG) at 562 nm.
Mitochondrial complex II activity is measured with Complex II enzyme activity microplate assay Kit (Abcam) according to the manufacture's protocol. This assay follows the production of ubiquinol (QH2, produced by mitochondrial complex II) coupled to the reduction of a colorimetric dye (DCPIP, 2,6-diclorophenolindophenol). In brief, 50 ul of each sample (adjusted to 2500-3000 ug/ml of total protein amount) is incubated for 2 hours. After that, wells are washed several times and incubated with Activity solution provided with the kit (composed by ubiquinone, succinate and DCPIP). For the determination of mitochondrial complex II activity, colorimetric reduction of DCPIP at Optical Density (OD) 600 nm in a kinetic reaction along 30 minutes is measured with a microplate reader (Clariostar®, BMG). Results are calculated as the rate of decrease in absorbance at OD 600 nm between two points in the linear zone over time.
[…]. These values represent the mean for at least three independent assays.

“H-Phe-Trp-Met-Lys-Arg-Lys-Arg-Val-Pro-NH2 (H-FWMKRKRVP-NH2) [PEP-1]”: the “Fold induction respect to Basal condition at 7:30 h (%)” value in assay [1] came to 182.5%; in assay [2] it was 132.5%. The “Percentage of mitochondrial complex II activity relative to basal condition (%)” value in assay [3] (0.1 mg/mL) was found to be 166.00%; in assay [3] (0.5 mg/mL) it was 142.12%; in assay [3] (1 mg/mL), 133.00%.
